# In US7850984B2, “Protection of the female reproductive system from natural and artificial insults” (The General Hospital Corporation, priority 2000, dated 2010):
# Entries after “also recorded” stand apart in the source; their conditions may differ.
# Experiments:
# oocytes = settings: mouse oocytes cultured with S1P before doxorubicin exposure; Perez et al. (1997); cited from earlier work
# F0 oocytes = experiment: DNA damage in F0 oocytes scored at diakinesis/metaphase I; format: in vivo, mouse
# [1] = tested on: ovaries (oocyte-containing follicles); experiment: S1P protection against radiation in vivo, histomorphometric count of non-atretic oocyte-containing follicles; parameters: species or system mouse
# Experimental: The serial sections from each ovary are aligned in order on glass microscope slides, stained with hematoxylin/picric methyl blue, and analyzed for the number of healthy (non-atretic) oocyte-containing primordial, primary and small preantral follicles as described by Perez et al. Nat. Genet.
# Young adult (postpartum day 40) wild-type female mice are anesthetized, and dorsal incisions are made to retrieve and expose the ovaries. Five μl of vehicle (PET) are injected into the bursa of one ovary of the pair while 5 μl of a stock of either 0.5 or 2 mM S1P, prepared in PET, are injected into the bursa of the contralateral ovary. Based on an estimated bursal cavity volume of 50 μl, the final concentrations of S1P in the bursal cavity for ovarian exposure following administration of the 0.5 and 2 mM stocks are approximately 50 and 200 μM, respectively. The ovaries are returned to the peritoneal cavity, the incisions are sutured, and the mice are allowed to recover for a 2 hour pretreatment period prior to a single exposure to 0.1 Gy of abdominally-directed ionizing radiation.
# [2] = tested on: polychromatic erythrocytes of F0, F1 and F2 mice; experiment: Micronuclei assay in polychromatic erythrocytes of tail blood; format: in vivo, mouse
# From the text: To evaluate the possibility of transgenerational transmission of DNA damage, the frequency of micronuclei is used as a sensitive indicator of the extent of propagated genomic damage (Trott, K. R., Jamali, M., Manti, L. & Teibe, A. Manifestations and mechanisms of radiation-induced genomic instability in V-79 Chinese hamster cells. Int. J. Radiat. Biol. 74, 787-791 (1998); Manti, L., Jamali, M., Prise, K. M., Michael B. D. & Trott, K. R. Genomic instability in Chinese hamster ovary cells after exposure to X rays or alpha particles of different mean energy transfer. Radiat. Res. 147, 22-28 (1997)). Tail blood samples from 16-18 month old non-irradiated, vehicle-treated and irradiated, or S1P-treated and irradiated F0 mice, 16-18 month old F1 mice, or 12-16 month old F2 mice, are smeared onto glass microscope slides coated with acridine orange (Shinko Corporation, New York, N.Y.), and coded prior to analysis. The frequency of micronuclei is then assessed in the 10^3 polychromatic erythrocytes by flourescence microscopy (Hayashi, M., Morita, T., Kodama, Y., Sofuni, T., & Ishidate, M., Jr. The micronucleus assay with mouse peripheral blood reticulocytes using acridine orange-coated slides. Mutat. Res. 245, 245-249 (1990)), after which the slides are decoded for data interpretation.
# C57BL/6J female mice = experiment: Mating trials of irradiated female mice; format: in vivo, mouse
# Experimental: Eight-week old C57BL/6J female mice (Jackson Laboratories) are anesthetized by intraperitoneal injection of Avertin (30 μl of a 1.25% stock solution per gram of body weight; Aldrich Chemical Co.), and dorsal incisions are made to retrieve and expose the ovaries. Five μl of vehicle (5% polyethylene glycol, 2.5% ethanol, and 0.8% Tween-80, or PET) or of a stock of 2 mM S1P (BIOMOL) prepared in PET are injected into the bursa surrounding each ovary (see Example 10). Based on an estimated bursal cavity volume of 50 μl, the final concentration of S1P following this procedure is 200 μM. The ovaries are returned to the peritoneal cavity, the incisions are sutured, and the mice are allowed to recover for a 2-h pre-treatment period. Mice are then given a single dose of 0.05 or 0.1 Gy of abdominally directed ionizing radiation, using a cesium^137 source (Shepherd Mar-I, Model 68) at a dose rate of 0.7 Gy min^−1.
# To evaluate whether the acute protection of oocytes by S1P also results in long-term preservation of ovarian function and fertility, mating trials are initiated 2 months after irradiation. For these studies, 8-week old C57BL/6J female mice are given intrabursal injections of vehicle or a maximally effective dose of S1P (0.2 mM final concentration in the bursal cavity) two hours before exposure to 0.1 Gy of ionizing radiation, delivered as a single dose. […] Females, irradiated without or with S1P pre-treatment, are then mated with non-irradiated C57BL/6J males beginning 2 months post-irradiation. The F0 females are caged with adult (2-4 month old) wild type C57BL/6J males for 15 d. As a control to assure the fertility of the males, each is mated to a female of proven fertility. After delivery, pups of first time mothers are fostered while pups of subsequent litters are maintained with their natural mothers. […] The F0 female mice are bred again with a new wild type male two weeks after the pups are weaned, and the process is repeated for a total of 4 matings.
# It is next examined whether preservation of ovarian function and fertility might result in propagation of genomic damage to the F2 progeny. To generate F2 offspring, F1 males and females are each bred at 2 months of age with adult (2-4 month old) wild type C57BL/6J females or males, respectively (see FIG. 6 for details).
# [3] = tested on: ovaries (oocyte-containing follicles); settings: Morita et al., Nat. Med. 6 (2000); cited from earlier work
# [4] = tested on: germ cells of wild-type fetal ovaries (e13.5); experiment: Fetal ovary culture without hormonal support, germ cell survival; format: cell-based, mouse
# Experimental: To determine the basis of the extensive oocyte hyperplasia in ASMase −/− neonates, fetal ovaries are harvested from wild-type and mutant mice at embryonic day 13.5 (e13.5) for in vitro culture as a model to recapitulate the events surrounding germline death that occurs as a normal component of female gametogenesis. A time-dependent activation of programmed cell death is observed in the germline of wild-type fetal ovaries cultured without hormonal support for up to 72 hours (FIG. 2A). […] These findings indicate that there exists an ovarian-intrinsic cell death defect in the ASMase-deficient mouse, and point to enhanced survival of the developing germline during oogenesis as the mechanism underlying the enlarged oocyte pool seen in mutant females at birth.
# Equivalent levels of in vitro germ cell survival are obtained by either ASMase gene knockout (FIG. 2A) or by S1P treatment (FIG. 2B).
smiles,measurement,setting,value
"CCCCCCCCCCCCC/C=C/[C@@H](O)[C@@H](N)COP(=O)(O)O [S1P, sphingosine-1-phosphate]",protection of oocytes from doxorubicin-induced death in vitro,oocytes,protected the oocytes from death induced by subsequent doxorubicin exposure for up to 24 hours
same,Oocytes with Breaks/Crosstalk (% of total),F0 oocytes; 0.05 Gy + S1P,16.4%
same,Average Oocytes/o (mean ± SEM),"F0 oocytes; 0.05 Gy + S1P (200 μM intrabursal), 8 weeks after irradiation, n=8",30.8 ± 3.9
same,"Oocytes with Breaks/Crosstalk, number","F0 oocytes; 0.05 Gy + S1P, of 110 total scorable oocytes",18
same,Oocytes with Breaks/Crosstalk (% of total),F0 oocytes; 0.1 Gy + S1P,27.6%
same,"Oocytes with Breaks/Crosstalk, number","F0 oocytes; 0.1 Gy + S1P, of 86 total scorable oocytes",24
same,percentage of oocyte population manifesting DNA damage versus vehicle-treated irradiated mice,F0 oocytes; S1P-treated irradiated females,no increase in the percentage of the oocyte population manifesting DNA damage
same,preservation of the germ cell reserve,"[1]; S1P approx. 50 and 200 μM intrabursal, two hours before 0.1 Gy, ovaries two weeks later",significant and dose-dependent preservation of the germ cell reserve
same,side effects on the ovaries,[1]; general statement,safe and without side effects on the ovaries
same,protection of follicle populations after irradiation,"[1]; highest dose of S1P (200 μM in bursal cavity), two hours before 0.1 Gy, two weeks post-irradiation","complete protection of the quiescent (primordial) and growing (primary, preantral) follicle populations; also recorded: retain a completely normal distribution of oocyte-containing follicles at all stages of development; also recorded: indistinguishable from non-irradiated controls; also recorded: Complete protection of the female germline from radiation-induced death"
same,number of follicles at any stage of development versus vehicle-treated ovaries,"[1]; in the absence of irradiation, intrabursal S1P",does not significantly differ
same,frequency of micronuclei in F0 animals versus non-irradiated controls,"[2]; 0.1 Gy, S1P-treated, statistically significant (P<0.01)",small increase in the frequency of micronuclei over non-irradiated controls
same,"frequency of micronuclei, vehicle-treated versus S1P-treated irradiated mice","[2]; F0, 0.1 Gy",no significant difference in the frequency of micronuclei
same,irradiated females remaining fertile after one year,"C57BL/6J female mice; 200 μM S1P before 0.1 Gy, fourth mating trial, P<0.001 vs. vehicle-treated irradiated females",75%
same,"irradiated females delivering litters, first mating trial","C57BL/6J female mice; 200 μM S1P before 0.1 Gy, mating 2 months post-irradiation, n=8",all
same,litter size,"C57BL/6J female mice; S1P-treated irradiated group (0.1 Gy), average",6.1±0.4 pups per mating
same,frequency of rejection of pups by irradiated mothers,C57BL/6J female mice; mothers treated or not with S1P,no increase in the frequency of rejection of pups
same,phenotypic or behavioral abnormalities in F2 offspring,C57BL/6J female mice; second generation,no gross phenotypic or behavioral abnormalities
same,phenotypic or behavioral abnormalities in F1 offspring,C57BL/6J female mice; up to 18 months of age,No phenotypic or behavioral abnormalities
same,protection of oocyte population from apoptotic death following radiotherapy,[3],essentially protects the entire oocyte population from apoptotic death
same,share of starting population of germ cells preserved,"[4]; after 72 hours of hormone deprivation, versus 0 h",Over one-half of the starting population of germ cells (0 h or Time 0) is preserved
same,germ cell survival / germ cell apoptosis in cultured fetal ovaries,"[4]; wild-type fetal ovaries, 72 hours in vitro without hormonal support, FB1 5-500 μM, S1P increasing concentrations",the reduced incidence of germ cell apoptosis conveyed by ASMase-deficiency is recapitulated
